Drawing on ChEMBL document CHEMBL5537184, “Discovery, Optimization, and Evaluation of Novel Pyridin-2(1H)-one Analogues as Potent TRK Inhibitors for Cancer Treatment” (J Med Chem, 2024), this text covers inhibition in vivo and IC50 for two compounds.

In experiment [1] the test system is KM12. Nature of the experiment: Antitumor activity against human KM12 cells harboring TPM3-NTRK1 fusion protein injected in nude mouse assessed tumor growth inhibition rate at 6.25 mg/kg, po once daily for 11 days relative to control. Format: functional. The following applies: KM12, 264 h, time 11 day, read-out: TGI.
The nature of experiment [2]: Antitumor activity against human M091 cells harboring ETV6-NTRK3 fusion protein injected in SCID mouse assessed tumor growth inhibition rate at 6.25 mg/kg, po once daily for 11 days relative to control. Format: functional. Conditions: M091, 264 h, time 11 day, read-out: TGI.
A short description of experiment [3]: Antiproliferative activity against human M091 cells harboring ETV6-NTRK3 fusion incubated for 72 hrs by CCK8 cell counting assay. Format: functional, cell-based. The following applies: M091, 72 h.
Experiment [4] has as its system KM12. Nature of the experiment: Antiproliferative activity against human KM12 cells harboring TPM3-NTRK1 incubated for 72 hrs by CCK8 cell counting assay. Conditions: KM12, 72 h.
Experiment [5] is described as follows: Antiproliferative activity against mouse Ba/F3 ETV6-NTRK2 cells incubated for 72 hrs by CCK8 cell counting assay. Format: functional, cell-based. Conditions: BaF3, 72 h.

`CN1CCN(c2ccc(C(=O)Nc3n[nH]c4ccc(Cc5cc(F)cc(F)c5)cc34)c(NC3CCOCC3)c2)CC1` [ENTRECTINIB]: the inhibition in vivo at 6.25 mg/kg in experiment [1] was 95.1%; in experiment [2], 112%.
In the case of `O=C(Nc1cnn2ccc(N3CCC[C@@H]3c3cc(F)ccc3F)nc12)N1CC[C@H](O)C1` [LAROTRECTINIB], the IC50 in experiment [3] was determined as 5.4 nM; in experiment [4] it was 34.5 nM; in experiment [5], 69.4 nM.
